Here are results for two compounds from patent US9060966B2, “Use of 2,5-dihydroxybenzene derivatives for the treatment of arthritis and pain” (priority 2006, dated 2015).

Entries after “also recorded” stand apart in the source; their conditions may differ.

For assay [1], the system named is Leishmania major. The experiment in a line: Experimental infection with Leishmania major in a mouse model (paw thickness). The class given is in vivo, mice. From the text: The vehicle group consisted of infected animals that received daily injections of saline (0.9% NaCl) during the same period as DHBS. Results are expressed as the mean±the standard deviation of the increases in size of the inoculated paw (right) compared to the non-inoculated paw (left) in mm obtained with a Vernier caliper each week from 0 to 10. ** indicates p<0.01 vs. the vehicle-treated group by a Student t-test. 6 animals were used for each group.
The vehicle group consisted of infected animals that received daily injections of saline (0.9% NaCl) from the moment of the infection, while the control group consisted of non-infected animals. Results are expressed as the mean±the standard deviation of the increases in size of the inoculated paw (right) compared to the non-inoculated paw (left) in mm obtained with a Vernier caliper each week from 0 to 9. * indicates p<0.05 vs. the vehicle group by a Student t-test. 7 animals were used for each group.
The vehicle group consisted of infected animals that received daily injections of saline (0.9% NaCl) from the third week after the infection. Results are expressed as the mean±the standard deviation of the increases in size of the inoculated paw (right) compared to the non-inoculated paw (left) in mm obtained with a Vernier caliper each week from 0 to 9. * indicates p<0.05 vs. the vehicle group by a Student t-test. 7 animals were used for each group.
This model is based in the massive inoculation of Leishmania promatigotes in the mouse paw pad. Under these conditions, the parasite induces a progressive inflammation correlated with the multiplication of parasites at the site of inoculation. BALB/c strain female mice that developed severe and uncontrolled injuries were used (Foote S J, Handman E. Brief Funct Genomic Proteomic, 2005). This model has been used in pharmacology to monitor the therapeutic capacity of new leishmanicide compounds and the preventive capacity of potential vaccines against leishmaniasis ((Nelson K G et al. Antimicrob Agents Chemother. 2006).
The animals were inoculated with 5×10^6 of L. major promastigotes (strain Hervás) in 50 μL of PBS into the plantar pad of the right back paw. As negative control of the infection, a group of mice inoculated with 50 μL of PBS was used. The sizes of the lesions were measured every 7 days until the animals were sacrificed (week 9) using a Vernier caliper. The thickness of the right back paw (infected) and the left back paw (uninfected) of all the animals was measured at the base of the fifth toe. The progression of the inflammation is represented as the difference in thickness between the infected and the non-infected paws. […]

For assay [2], the target named is fibroblast growth factor-1 (FGF-1) (Homo sapiens, UniProt P05230). The experiment in a line: Inhibition of fibroblast mitogenesis induced by FGF-1 in Balb/c 3T3 fibroblasts. The arrangement: host or cells: added to Balb/c 3T3 fibroblasts (mouse). As to conditions: quiescent Balb/c 3T3 cultures; potassium salts, except 2-acetoxy-5-hydroxybenzene sulfonate as calcium salt. Format: cell-based. How it is done: The evaluated compounds were used in the form of potassium salt, except in the first case in which calcium salt was used. The experiments were carried out as described in Fernandez-Tornero C et al. J Biol Chem, 2003.
fibroblast growth factor-1 (FGF-1), sequence (P05230 whole entry, species assumed): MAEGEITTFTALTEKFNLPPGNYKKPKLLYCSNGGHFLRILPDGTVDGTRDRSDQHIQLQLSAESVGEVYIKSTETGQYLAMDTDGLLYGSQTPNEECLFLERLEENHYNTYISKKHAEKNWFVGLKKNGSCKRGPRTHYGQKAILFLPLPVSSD

Assay [3] concerns uterine tissue implanted in the peritoneal cavity. The experiment in a line: Rat model of endometriosis (autologous implant, histology). Format: in vivo. As to conditions: 200 mg/kg/day i.p., two weeks. An excerpt:
In these rats, the epithelial layer (a) and the stroma (b) are clearly observed in the endometrium, while longitudinal (c) and circular (d) normal layers of smooth muscle cells are observed in the myometrium adjacent to the peritoneal tissue (e). […] The neovascularization observed in the uterine tissue implanted in control rats (shown with arrows in A) is not present in rats treated with 2,5-dihydroxybenzenesulfonic (DHBS) (C). • D) Magnification of the area marked with a box in C.
Sprague-Dawley rats were anesthetized as described (Fernandez-Tornero C et al. J Biol Chem, 2003). Endometriotic lesions were induced using a known rat model of endometriosis (Vernon M W and Wilson E A. Fertil Steril, 1985). In summary, 2 mm fragments of the cervix were autologously implanted between branches in the mesenteric vascular tree. The rats were treated or not treated (control) daily during two weeks after the surgery with 2,5-dihydroxybenzene sulfonic acid (DHBS) (200 mg/kg; i.p.). Then, the rats were sacrificed and the endometrial ectopic tissue was removed to make its histological examination. […] This example illustrates the therapeutic activity of 2,5-dihydroxybenzene sulfonate (DHBS) in the treatment of endometriosis.

`CC(=O)Oc1ccc(OC(C)=O)c(S(=O)(=O)[O-])c1.[K+]` [DABS, potassium 2,5-diacetoxybenzene sulfonate]: the “size of the lesion (infected vs non-infected paw)” value was “statistically significant reduction in the size of the lesion” in assay [1] (200 mg/kg/day i.p. from day 0 to week 9, effect from the third week post-infection) and “significantly smaller; also recorded: Reduction in the size of the lesion” in assay [1] (200 mg/kg/day i.p. from third week after inoculation, effect from the eighth week). Also, the FGF-1 induced mitogenesis result in assay [2] is listed as “Inhibition”.

`O=S(=O)(O)c1cc(O)ccc1O` [DHBS, 2,5-dihydroxybenzenesulfonic acid]: in assay [3], the “histology of the implanted uterine (cervix) tissue, hematoxylin-eosin” value was “athrophy of the cervix tissue implanted; also recorded: Degeneration of the uterine tissue implanted” and the “neovascularization of the implanted uterine tissue” value is on record as “not present”.
